This note sets out measurements from ChEMBL document CHEMBL1151624, “Isolation of artemisinin (qinghaosu) from Artemisia annua growing in the United States” (J Nat Prod, 1984).

In assay [1] the test system is Plasmodium falciparum. Kind of assay: Antimalarial activity against chloroquine-sensitive Plasmodium falciparum CAMP by semiautomated micro dilution assay. The assay is classed as functional, organism-based.
Assay [2] deals with Plasmodium falciparum. Kind of assay: Antimalarial activity against chloroquine-resistant Plasmodium falciparum Smith by semiautomated micro dilution assay. Type of assay: functional, organism-based.
A further assay has as its system Klebsiella. Kind of assay: Antimicrobial activity against Klebsiella. Type of assay: functional.
For the next assay, the system named is Neisseria meningitidis. Kind of assay: Antimicrobial activity against Neisseria meningitidis. Type of assay: functional.
In another assay the test system is Escherichia coli. Kind of assay: Antimicrobial activity against Escherichia coli. The assay is classed as functional.
For the next assay, the system named is Enterococcus faecalis. The assay is described as follows: Antimicrobial activity against Streptococcus faecalis. The assay is classed as functional.
The test system of a further assay is Neisseria gonorrhoeae. Kind of assay: Antimicrobial activity against Neisseria gonorrhoeae. The assay is classed as functional.
Another assay relates to Proteus sp. Kind of assay: Antimicrobial activity against Proteus Sp. The assay is classed as functional. As to conditions: Proteus sp. (in: enterobacteria).
Another assay deals with Staphylococcus aureus. Kind of assay: Antimicrobial activity against Staphylococcus aureus. Type of assay: functional.
Another assay relates to Serratia marcescens. Kind of assay: Antimicrobial activity against Serratia marcescens. The assay is classed as functional.
The next assay deals with Shigella dysenteriae. Kind of assay: Antimicrobial activity against Shigella dysenteriae. The assay is classed as functional.

In brackets after ≈: the same amount, converted by molar mass.

For the compound `OC(c1cc(C(F)(F)F)nc2c(C(F)(F)F)cccc12)C1CCCCN1` (stereo not drawn) [MEFLOQUINE], the IC50 – broadly, the concentration that gives 50% inhibition – worked out at 3.5 ng/mL (≈ 0.00925 µM) in the assay on Plasmodium falciparum [1] and 2.5 ng/mL (≈ 0.00661 µM) in the assay with Plasmodium falciparum [2].

With `C[C@@H]1CC[C@H]2[C@@H](C)C(=O)O[C@@H]3O[C@@]4(C)CC[C@@H]1[C@]32OO4` [ARTEMISININ], the MIC (as a rule, the lowest concentration found to suppress growth) against Klebsiella is more than 32 µg/mL; in the assay with Neisseria meningitidis, more than 1 µg/mL; against Escherichia coli, more than 32 µg/mL; against Enterococcus faecalis, more than 32 µg/mL; with Neisseria gonorrhoeae it was more than 1 µg/mL; against Proteus sp., more than 32 µg/mL. The MIC in the assay with Staphylococcus aureus, in the assay with Serratia marcescens and against Shigella dysenteriae was more than 32 µg/mL each time. Moreover, the IC50 in the assay with Plasmodium falciparum [1] and with Plasmodium falciparum [2] was less than 3.4 ng/mL each time.
